Holding throughout (type): cell-based, Ixodes ricinus
In experiment [1] the test system is T1, Iricα6 homomeric nicotinic acetylcholine receptor.
T1 construct: Iricα6 homomeric receptor expressed in Xenopus laevis oocytes (co-injected with C. elegans RIC-3)
The experiment is described as follows: two-electrode voltage clamp in Xenopus oocytes, agonist dose-response. (Two-electrode voltage clamp holds a large cell at a set potential and records current.)

For experiment [2] the test system is unchanged. In words: two-electrode voltage clamp in Xenopus oocytes, agonist-like dose-response.
Experiment [3] shares this test system. In words: two-electrode voltage clamp in Xenopus oocytes, inhibition of ACh-evoked currents.

Like-named read-outs stand apart in the source and are kept apart here.

As a reminder, the EC50 is the concentration needed to bring the measured effect to its halfway point. The low end stands for an effect from little substance, the high end for a need for much substance. The term IC50 denotes the concentration needed to halve the response being measured.

With `CC(=O)OCC[N+](C)(C)C` [ACh, acetylcholine], the EC50 in experiment [1] is 27700 ± 2440 nM.
For the compound `CNC1(C)C2CCC(C2)C1(C)C` (stereo not shown) [MECA, mecamylamine], in experiment [2], the EC50 came out at 12.6 nM.
On to `CCN1C[C@]2(COC(=O)c3ccccc3N3C(=O)C[C@H](C)C3=O)CC[C@H](OC)[C@@]34[C@@H]5C[C@H]6[C@H](OC)[C@@H]5[C@](O)(C[C@@H]6OC)[C@@](O)([C@@H](OC)[C@H]23)[C@@H]14` [MLA, methyllicaconitine], for which the IC50 in experiment [3] (read-out: IC50) was determined as 8.56 nM.
Take `CO[C@H]1CC=C2CCN3CCC4=C(CC(=O)OC4)[C@]23C1` [DHβE, dihydro-β-erythroidine]: the IC50 in experiment [3] turned out to be 1.35 nM.

Values taken from paper PMC12721288, “Functional expression and properties of the tick α6 homomeric nicotinic acetylcholine receptor in Xenopus laevis oocytes” (Current Research in Parasitology & Vector-borne Diseases, 2025).
